Test results as given in PubChem BioAssay (NCI).
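Interpolation was linear, between the two tested concentrations surrounding the appropriate level; five concentrations were tested over 48 hours in 96-well plates. GI50: concentration for 50% inhibition of growth. TGI denotes the concentration required for complete inhibition of growth.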

How the values were obtained:
Experiment in all cases: NCI tumour cell line growth inhibition, 48 h; in the data active = GI50 below about 0.43 µM; inactive = the rest
U251 CNS = test system: U251 CNS
HS 578T breast = test system: HS 578T breast
NCI/ADR-RES ovarian = test system: NCI/ADR-RES ovarian
RXF 393 renal = test system: RXF 393 renal
SW-620 colon = test system: SW-620 colon
UACC-62 melanoma = test system: UACC-62 melanoma
SF-539 CNS = test system: SF-539 CNS
SNB-75 CNS = test system: SNB-75 CNS
MALME-3M melanoma = test system: MALME-3M melanoma
HOP-62 NSCLC = test system: HOP-62 NSCLC
MCF7 breast = test system: MCF7 breast
OVCAR-8 ovarian = test system: OVCAR-8 ovarian
UO-31 renal = test system: UO-31 renal
HCT-116 colon = test system: HCT-116 colon
IGROV1 ovarian = test system: IGROV1 ovarian
RPMI-8226 leukemia = test system: RPMI-8226 leukemia
M14 melanoma = test system: M14 melanoma
HCC-2998 colon = test system: HCC-2998 colon
MDA-MB-468 breast = test system: MDA-MB-468 breast
NCI-H460 lung = test system: NCI-H460 lung
HOP-92 NSCLC = test system: HOP-92 NSCLC
TK-10 renal = test system: TK-10 renal
SK-OV-3 ovarian = test system: SK-OV-3 ovarian
HL-60(TB) leukemia = test system: HL-60(TB) leukemia
K-562 leukemia = test system: K-562 leukemia
NCI-H226 lung = test system: NCI-H226 lung
NCI-H23 lung = test system: NCI-H23 lung
HCT-15 colon = test system: HCT-15 colon
T-47D breast = test system: T-47D breast
PC-3 prostate = test system: PC-3 prostate
HT29 colon = test system: HT29 colon
ACHN renal = test system: ACHN renal
CAKI-1 renal = test system: CAKI-1 renal
MDA-MB-231 breast = test system: MDA-MB-231 breast
A498 renal = test system: A498 renal
CCRF-CEM leukemia = test system: CCRF-CEM leukemia
SK-MEL-5 melanoma = test system: SK-MEL-5 melanoma
SK-MEL-2 melanoma = test system: SK-MEL-2 melanoma
SF-295 CNS = test system: SF-295 CNS
MOLT-4 leukemia = test system: MOLT-4 leukemia
OVCAR-3 ovarian = test system: OVCAR-3 ovarian
786-0 renal = test system: 786-0 renal
BT-549 breast = test system: BT-549 breast
OVCAR-4 ovarian = test system: OVCAR-4 ovarian
LOX IMVI melanoma = test system: LOX IMVI melanoma
MDA-MB-435 = test system: MDA-MB-435
DU-145 prostate = test system: DU-145 prostate
A549 NSCLC = test system: A549 NSCLC
SN12C renal = test system: SN12C renal
SF-268 CNS = test system: SF-268 CNS
UACC-257 melanoma = test system: UACC-257 melanoma
NCI-H522 lung = test system: NCI-H522 lung
OVCAR-5 ovarian = test system: OVCAR-5 ovarian
SR leukemia = test system: SR leukemia
KM12 colon = test system: KM12 colon
SK-MEL-28 melanoma = test system: SK-MEL-28 melanoma
SNB-19 CNS = test system: SNB-19 CNS
EKVX NSCLC = test system: EKVX NSCLC
COLO 205 colon = test system: COLO 205 colon

COc1ccc(C(=O)/C=C/c2ccc(OC)c(OCc3ccccc3)c2)cc1OC
53.5 µM: TGI (HS 578T breast)
80.6 µM: TGI (T-47D breast)
8.73 µM: TGI (MOLT-4 leukemia)
70.9 µM: TGI (SF-268 CNS)
38.6 µM: TGI (KM12 colon)
24.8 µM: TGI (HL-60(TB) leukemia)
43.6 µM: TGI (NCI-H23 lung)
inactive: GI50 (U251 CNS) 3.02 µM | GI50 (HS 578T breast) 7.71 µM | GI50 (NCI/ADR-RES ovarian) 3 µM | GI50 (RXF 393 renal) 4.61 µM | GI50 (SW-620 colon) 3.04 µM | GI50 (UACC-62 melanoma) 3.81 µM | GI50 (SF-539 CNS) 2.04 µM | GI50 (SNB-75 CNS) 1.59 µM | GI50 (MALME-3M melanoma) 25.1 µM | GI50 (HOP-62 NSCLC) 3.37 µM | GI50 (MCF7 breast) 2.64 µM | GI50 (OVCAR-8 ovarian) 3.25 µM | GI50 (UO-31 renal) 2.89 µM | GI50 (HCT-116 colon) 3.35 µM | GI50 (IGROV1 ovarian) 3.42 µM | GI50 (RPMI-8226 leukemia) 2.64 µM | GI50 (M14 melanoma) 9.79 µM | GI50 (HCC-2998 colon) 3.39 µM | GI50 (MDA-MB-468 breast) 2.94 µM | GI50 (NCI-H460 lung) 3.67 µM | GI50 (HOP-92 NSCLC) 4.67 µM | GI50 (TK-10 renal) 4.87 µM | GI50 (SK-OV-3 ovarian) 8.23 µM | GI50 (HL-60(TB) leukemia) 5.06 µM | GI50 (K-562 leukemia) 2.86 µM | GI50 (NCI-H226 lung) 6.35 µM | GI50 (NCI-H23 lung) 4.39 µM | GI50 (HCT-15 colon) 2.69 µM | GI50 (T-47D breast) 2.8 µM | GI50 (PC-3 prostate) 4.99 µM | GI50 (HT29 colon) 4 µM | GI50 (ACHN renal) 6.86 µM | GI50 (CAKI-1 renal) 9.93 µM | GI50 (MDA-MB-231 breast) 4.11 µM | GI50 (A498 renal) 17.5 µM | GI50 (CCRF-CEM leukemia) 3.22 µM | GI50 (SK-MEL-5 melanoma) 11.7 µM | GI50 (SK-MEL-2 melanoma) 14.4 µM | GI50 (SF-295 CNS) 5.43 µM | GI50 (MOLT-4 leukemia) 2.7 µM | GI50 (OVCAR-3 ovarian) 2.96 µM | GI50 (786-0 renal) 4.13 µM | GI50 (BT-549 breast) 2.55 µM | GI50 (OVCAR-4 ovarian) 5.2 µM | GI50 (LOX IMVI melanoma) 2.66 µM | GI50 (MDA-MB-435) 3.47 µM | GI50 (DU-145 prostate) 3.83 µM | GI50 (A549 NSCLC) 3.11 µM | GI50 (SN12C renal) 2.89 µM | GI50 (SF-268 CNS) 8.91 µM | GI50 (UACC-257 melanoma) 6.57 µM | GI50 (NCI-H522 lung) 3.18 µM | GI50 (OVCAR-5 ovarian) 2.97 µM | GI50 (SR leukemia) 2.06 µM | GI50 (KM12 colon) 3.93 µM | GI50 (SK-MEL-28 melanoma) 21.4 µM | GI50 (SNB-19 CNS) 3.46 µM | GI50 (EKVX NSCLC) 13.4 µM | GI50 (COLO 205 colon) 4.33 µM
27.5 µM: TGI (SK-MEL-5 melanoma)
4.65 µM: TGI (SF-539 CNS)
> 100 µM: TGI (U251 CNS) | TGI (NCI/ADR-RES ovarian) | TGI (RXF 393 renal) | TGI (SW-620 colon) | TGI (MALME-3M melanoma) | TGI (MCF7 breast) | TGI (OVCAR-8 ovarian) | TGI (UO-31 renal) | TGI (HCT-116 colon) | TGI (IGROV1 ovarian) | TGI (RPMI-8226 leukemia) | TGI (M14 melanoma) | TGI (HCC-2998 colon) | TGI (HOP-92 NSCLC) | TGI (TK-10 renal) | TGI (SK-OV-3 ovarian) | TGI (K-562 leukemia) | TGI (HCT-15 colon) | TGI (PC-3 prostate) | TGI (HT29 colon) | TGI (ACHN renal) | TGI (CAKI-1 renal) | TGI (MDA-MB-231 breast) | TGI (CCRF-CEM leukemia) | TGI (SF-295 CNS) | TGI (786-0 renal) | TGI (LOX IMVI melanoma) | TGI (MDA-MB-435) | TGI (DU-145 prostate) | TGI (A549 NSCLC) | TGI (SN12C renal) | TGI (UACC-257 melanoma) | TGI (OVCAR-5 ovarian) | TGI (SK-MEL-28 melanoma) | TGI (SNB-19 CNS) | TGI (EKVX NSCLC)
33.9 µM: TGI (UACC-62 melanoma)
60.1 µM: TGI (SK-MEL-2 melanoma)
61.5 µM: TGI (OVCAR-4 ovarian)
82.6 µM: TGI (HOP-62 NSCLC)
7.21 µM: TGI (SNB-75 CNS)
8.42 µM: TGI (BT-549 breast)
95.9 µM: TGI (NCI-H226 lung)
8.61 µM: TGI (SR leukemia)
61.4 µM: TGI (A498 renal)
38 µM: TGI (COLO 205 colon)
19.6 µM: TGI (MDA-MB-468 breast) | TGI (OVCAR-3 ovarian)
26 µM: TGI (NCI-H522 lung)
20.3 µM: TGI (NCI-H460 lung)
